Experimental data from US12240844B2 (Voronoi, Inc., priority 2019, dated 2025).

Assays:
LRRK2 (G2019S) = LRRK2 (G2019S) (Homo sapiens, UniProt Q5S007, G2019S); test: LRRK2 G2019S enzyme inhibition, ADP-Glo kinase assay; type: biochemical; parameters: purchased SignalChem L10-12GG
How it was run: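 Activity read as ADP-Glo luminescence, normalized to untreated solvent control, with IC50 (nM) fitted over 12 final compound levels (top 50 μM). Reaction: 2 h, 25° C, human LRRK2 G2019S 16 ng, ATP 25 μM, substrate 0.2 μg, in Tris-HCl pH 7.4 with MgCl2, BSA and DTT.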

human GST-CLK1 (129-end) = target: T1, human GST-CLK1 (129-end) (Homo sapiens, UniProt P49759); test: GST-CLK1 enzyme inhibition, ADP-Glo kinase assay; type: biochemical; conditions: ATP 10 uM
T1 construct: purified human GST-CLK1 (129-end, Signalchem) enzyme; GST; purchased Signalchem
How it was run: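 ADP formation was read by ADP-Glo luminescence after 1 h at 25° C with 3 ng human GST-CLK1 (129-end), substrate and 10 uM ATP in Tris pH 7.4 buffer containing MgCl2, BSA and DTT. Inhibition relative to untreated solvent control gave IC50 (nM), run in triplicate.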

[1] = target: T2, human GST-DYRK1A (full length) (Homo sapiens, UniProt Q13627); test: GST-DYRK1A enzyme inhibition, ADP-Glo kinase assay; type: biochemical; conditions: read-out: DYRK1 IC50
T2 construct: purified human GST-DYRK1A (full length, Thermo scientifics) enzyme; GST; purchased Thermo scientifics
How it was run: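 ADP-Glo luminescence quantified kinase activity after a 1 h, 25° C reaction of 10 ng full-length GST-tagged human DYRK1A, substrate and 10 uM ATP in Tris-HCl buffer pH 7.4 with MgCl2, BSA and DTT. Triplicate IC50 values (nM) calculated relative to untreated solvent control.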

MDA-MB-231 cell line = test: MDA-MB-231 cancer cell proliferation inhibition (Cell Titer-Glo); type: cell-based; conditions: Homo sapiens, MDA-MB-231 triple-negative breast cancer cell line, 72 hours
Method: (§1) In order to evaluate the cancer cell proliferation inhibitory activity of the compounds of the present invention, the following experiments were performed.
(§2) To evaluate the cancer cell proliferation inhibitory effect, the cell growth rate analysis was performed while culturing MDA-MB-231 cell line (Korean Cell Line Bank #30026) and MDA-MB-468 cell line as the triple-negative breast cancer cell line, and SHP-77 (ATCC #CRL-2195) as the small cell lung cancer cell line in DMEM (HyClone #SH30243) and RPMI medium (HyClone #SH3027.01), respectively. More specifically, the cell lines were each plated at 2000 cells/100 μl in each well of a 96-well flat-bottom plate (coming #3903), and then the example compounds having eleven concentrations which were diluted by ⅓ so that the final concentrations were 10.000000, 3.333333, 1.111111, 0.370370, 0.123457, 0.041152, 0.013717, 0.004572, 0.001524, 0.000508 and 0.000169 μM were treated. After 72 hours, 100 μl of Cell Titer-Glo (Promega G7573) was treated, incubated at RT for 10 minutes, and then luminescence was measured using a microplate reader. The measured luminescence degree was calculated as GI50 using Prism (version 8.2 GraphPad) software.
(§3) In the table below, the following designations were used for the evaluation of proliferation inhibitory activity.

LRRK2 = LRRK2 (Homo sapiens, UniProt Q5S007); test: LRRK2 enzyme inhibition, ADP-Glo kinase assay; type: biochemical; parameters: purchased Invitrogen PR8604B
How it was run: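 ADP-Glo luminescence read after 2 h at 25° C, 10 μM ATP, 25 ng purified human LRRK2 and […] substrate in Tris-HCl pH7.4 buffer with MgCl2, BSA, DTT. Twelve final concentrations, 50 μM down to 0.000001024 μM; IC50 (nM) from inhibition relative to untreated solvent control.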

SHP-77 = SHP-77 cancer cell proliferation inhibition (Cell Titer-Glo); type: cell-based; conditions: Homo sapiens, SHP77, SHP-77 small cell lung cancer cell line, 72 hours
Method: as §1, §2, §3

Sequence of LRRK2 (Q5S007 970-2527 limits assumed): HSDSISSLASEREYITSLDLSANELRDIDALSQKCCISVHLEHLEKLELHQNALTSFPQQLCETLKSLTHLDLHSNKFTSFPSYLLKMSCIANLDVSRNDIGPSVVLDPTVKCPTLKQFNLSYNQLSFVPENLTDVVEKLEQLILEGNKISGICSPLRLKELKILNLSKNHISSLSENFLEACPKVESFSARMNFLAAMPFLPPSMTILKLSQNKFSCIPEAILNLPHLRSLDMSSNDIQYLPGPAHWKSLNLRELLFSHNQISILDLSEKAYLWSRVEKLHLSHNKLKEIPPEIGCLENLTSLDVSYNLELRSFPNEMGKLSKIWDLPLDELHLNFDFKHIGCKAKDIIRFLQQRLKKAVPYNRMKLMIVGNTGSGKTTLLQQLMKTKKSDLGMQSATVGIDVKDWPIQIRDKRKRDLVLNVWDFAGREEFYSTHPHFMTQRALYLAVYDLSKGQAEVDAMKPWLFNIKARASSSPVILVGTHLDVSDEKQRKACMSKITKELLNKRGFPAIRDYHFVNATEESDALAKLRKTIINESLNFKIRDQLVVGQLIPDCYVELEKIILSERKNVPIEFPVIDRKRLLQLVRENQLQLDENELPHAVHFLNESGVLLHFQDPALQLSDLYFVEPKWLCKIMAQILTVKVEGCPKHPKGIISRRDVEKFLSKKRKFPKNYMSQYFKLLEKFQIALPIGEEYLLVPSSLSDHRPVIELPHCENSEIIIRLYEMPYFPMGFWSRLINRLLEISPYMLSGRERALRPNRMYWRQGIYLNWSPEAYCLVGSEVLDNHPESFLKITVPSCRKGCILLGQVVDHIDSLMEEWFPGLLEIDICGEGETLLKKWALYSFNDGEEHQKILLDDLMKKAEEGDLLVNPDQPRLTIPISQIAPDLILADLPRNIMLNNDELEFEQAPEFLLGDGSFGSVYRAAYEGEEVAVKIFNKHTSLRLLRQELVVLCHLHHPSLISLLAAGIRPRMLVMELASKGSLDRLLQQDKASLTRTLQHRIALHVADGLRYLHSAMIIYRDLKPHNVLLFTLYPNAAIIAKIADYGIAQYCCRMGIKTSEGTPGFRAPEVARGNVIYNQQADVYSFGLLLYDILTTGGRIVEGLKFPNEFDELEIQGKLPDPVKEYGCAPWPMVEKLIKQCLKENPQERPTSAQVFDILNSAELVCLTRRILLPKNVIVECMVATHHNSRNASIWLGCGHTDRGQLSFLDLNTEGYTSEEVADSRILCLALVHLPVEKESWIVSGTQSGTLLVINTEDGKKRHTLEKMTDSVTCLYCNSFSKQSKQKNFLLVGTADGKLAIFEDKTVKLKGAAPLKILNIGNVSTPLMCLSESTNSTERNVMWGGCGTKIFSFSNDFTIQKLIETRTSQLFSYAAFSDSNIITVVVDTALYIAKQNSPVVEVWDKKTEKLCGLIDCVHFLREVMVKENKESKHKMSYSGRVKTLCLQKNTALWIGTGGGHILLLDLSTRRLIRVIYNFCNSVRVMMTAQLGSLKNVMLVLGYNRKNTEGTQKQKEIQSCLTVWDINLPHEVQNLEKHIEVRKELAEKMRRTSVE
Sequence of LRRK2 (G2019S) (Q5S007 970-2527 G2019S limits assumed): as the sequence (Q5S007 970-2527 limits assumed) above, with G1050S counted along it
T1 sequence (P49759 129-484 limits assumed): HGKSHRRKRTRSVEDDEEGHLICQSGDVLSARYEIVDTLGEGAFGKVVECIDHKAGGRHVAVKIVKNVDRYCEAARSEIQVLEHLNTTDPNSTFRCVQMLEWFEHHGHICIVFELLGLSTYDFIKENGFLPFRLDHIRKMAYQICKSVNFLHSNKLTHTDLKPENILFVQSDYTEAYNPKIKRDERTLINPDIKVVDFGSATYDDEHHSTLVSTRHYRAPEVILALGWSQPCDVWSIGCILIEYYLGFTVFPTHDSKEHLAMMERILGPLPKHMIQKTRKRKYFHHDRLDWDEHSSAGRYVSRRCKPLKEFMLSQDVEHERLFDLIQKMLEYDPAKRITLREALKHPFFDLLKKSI

Row | SMILES | IC50 (LRRK2 (G2019S)) [nM] | IC50 (human GST-CLK1 (129-end)) [nM] | IC50 [1] [nM] | GI50 (MDA-MB-231 cell line) [nM] | IC50 (LRRK2) [nM] | GI50 (SHP-77) [nM]
1 | CCCNc1cc(Nc2ccc(S(=O)(=O)N3CCC(N4CCOCC4)CC3)cc2OC)nc2[nH]cc(C#N)c12 [Example 139, 6-((2-methoxy-4-((4-morpholinopiperidin-1-yl)sulfonyl)phenyl)amino)-4-(propylamino)-1H-pyrrolo[2,3-b]pyridine-3-carbonitrile] | < 100 | 301 to 1000 | 301 to 1000 | < 50 | < 100 | < 50
2 | CCNc1cc(Nc2ccc(S(=O)(=O)N3CCOCC3)c3c2OCCO3)nc2[nH]cc(C(F)(F)F)c12 [Example 99, N^4-ethyl-N^6-(8-(morpholonosulfonyl)-2,3-dihydrobenzo[b] [1,4]dioxin-5-yl)-3-(trifluoromethyl)-1H-pyrrolo[2,3-b]pyridine-4,6-diamine] | 301 to 1000 | 301 to 1000 | 301 to 1000 | 301 to 1000 | 301 to 1000 | 301 to 1000
3 | CNc1cc(Nc2ccc(S(=O)(=O)N3CCC(N4CCOCC4)CC3)cc2OC)nc2[nH]cc(C#N)c12 [Example 137, 6-((2-methoxy-4-((4-morpholinopiperidin-1-yl)sulfonyl)phenyl)amino)-4-(methylamino)-1H-pyrrolo[2,3-b]pyridine-3-carbonitrile] | < 100 | 301 to 1000 | 301 to 1000 | 51 to 100 | < 100 | 51 to 100
4 | CCCNc1cc(Nc2ccc(S(=O)(=O)N3CCOCC3)cc2OC)nc2[nH]cc(C#N)c12 [Example 133, 6-((2-methoxy-4-(morpholinosulfonyl)phenyl)amino)-4-(propylamino)-1H-pyrrolo[2,3-b]pyridine-3-carbonitrile] | 301 to 1000 | 301 to 1000 | 301 to 1000 | 101 to 300 | < 100 | 51 to 100
5 | COc1cc(S(=O)(=O)N2CCC(N3CCOCC3)CC2)ccc1Nc1cc(NC2CC2)c2c(C#N)c[nH]c2n1 [Example 134, 4-(cyclopropylamino)-6-((2-methoxy-4-((4-morpholinopiperidin-1-yl)sulfonyl)phenyl)amino)-1H-pyrrolo[2,3-b]pyridine-3-carbonitrile] | < 100 | 101 to 300 | 301 to 1000 | < 50 | < 100 | < 50
6 | CCNc1cc(Nc2ccc(S(=O)(=O)N3CCOCC3)cc2OC)nc2[nH]cc(C(F)(F)F)c12 [Example 179, N^4-ethyl-N^6-(2-methoxy-4-(morpholinosulfonyl)phenyl)-3-(trifluoromethyl)-1H-pyrrolo[2,3-b]pyridine-4,6-diamine] | 301 to 1000 | 301 to 1000 | 301 to 1000 | 301 to 1000 | 301 to 1000 | 301 to 1000
7 | CCNc1cc(Nc2ccc(S(=O)(=O)N3CCOCC3)cc2OC)nc2[nH]cc(C#N)c12 [Example 132, 4-(ethylamino)-6-((2-methoxy-4-(morpholinosulfonyl)phenyl)amino)-1H-pyrrolo[2,3-b]pyridine-3-carbonitrile] | 101 to 300 | 301 to 1000 | 301 to 1000 | 101 to 300 | < 100 | 51 to 100
8 | CNc1cc(Nc2ccc(S(=O)(=O)N3CCOCC3)c3c2OCCO3)nc2[nH]cc(C(F)(F)F)c12 [Example 98, N^4-methyl-N^6-(8-(morpholonosulfonyl)-2,3-dihydrobenzo[b] [1,4]dioxin-5-yl)-3-(trifluoromethyl)-1H-pyrrolo[2,3-b]pyridine-4,6-diamine] | < 100 | 301 to 1000 | 101 to 300 | 101 to 300 | 101 to 300 | 301 to 1000
9 | COc1cc(S(=O)(=O)N2CCC(N3CCOCC3)CC2)ccc1Nc1cc(NCCS(C)(=O)=O)c2c(C#N)c[nH]c2n1 [Example 141, 6-((2-methoxy-4-((4-morpholinopiperidin-1-yl)sulfonyl)phenyl)amino)-4-((2-(methylsulfonyl)ethyl)amino)-1H-pyrrolo[2,3-b]pyridine-3-carbonitrile] |  | 301 to 1000 | < 100 | 101 to 300 | < 100 | 51 to 100

Next, values leading:

Row | IC50 (LRRK2 (G2019S)) [nM] | IC50 (human GST-CLK1 (129-end)) [nM] | IC50 [1] [nM] | GI50 (MDA-MB-231 cell line) [nM] | IC50 (LRRK2) [nM] | GI50 (SHP-77) [nM] | SMILES
10 | 301 to 1000 | 301 to 1000 | 301 to 1000 | 301 to 1000 | 101 to 300 | 301 to 1000 | COc1cc(S(=O)(=O)N2CCC(N3CCOCC3)CC2)ccc1Nc1cc(NCC(C)C)c2c(C(F)(F)F)c[nH]c2n1 [Example 191, N^4-isobutyl-N^6-(2-methoxy-4-((4-morpholinopiperidin-1-yl)sulfonyl)phenyl)-3-(trifluoromethyl)-1H-pyrrolo[2,3-b]pyridine-4,6-diamine]
11 | 301 to 1000 | 301 to 1000 | 301 to 1000 | 301 to 1000 | 301 to 1000 | 101 to 300 | COCCNc1cc(Nc2ccc(S(=O)(=O)N3CCOCC3)cc2OC)nc2[nH]cc(C(F)(F)F)c12 [Example 195, N^6-(2-methoxy-4-(morpholinosulfonyl)phenyl)-N^4-(2-methoxyethyl)-3-(trifluoromethyl)-1H-pyrrolo[2,3-b]pyridine-4,6-diamine]
12 | 301 to 1000 | 301 to 1000 | 301 to 1000 | 301 to 1000 | 301 to 1000 | 301 to 1000 | COc1cc(S(=O)(=O)N2CCOCC2)ccc1Nc1cc(NC2CCCCC2)c2c(C(F)(F)F)c[nH]c2n1 [Example 181, N^4-cyclohexyl-N^6-(2-methoxy-4-(morpholinosulfonyl)phenyl)-3-(trifluoromethyl)-1H-pyrrolo[2,3-b]pyridine-4,6-diamine]
13 | 101 to 300 | 301 to 1000 | 301 to 1000 | 301 to 1000 | < 100 | 101 to 300 | COc1cc(S(=O)(=O)N2CCC(N3CCOCC3)CC2)ccc1Nc1cc(NC2CC2)c2c(C(F)(F)F)c[nH]c2n1 [Example 188, N^4-cyclopropyl-N^6-(2-methoxy-4-((4-morpholinopiperidin-1-yl)sulfonyl)phenyl)-3-(trifluoromethyl)-1H-pyrrolo[2,3-b]pyridine-4,6-diamine 2,2,2-trifluoroacetate]
14 | 301 to 1000 | 301 to 1000 | < 100 | 301 to 1000 | 101 to 300 | 301 to 1000 | COc1cc(S(=O)(=O)N2CCOCC2)ccc1Nc1cc(NCCS(C)(=O)=O)c2c(C(F)(F)F)c[nH]c2n1 [Example 192, N^6-(2-methoxy-4-(morpholinosulfonyl)phenyl)-N^4-(2-(methylsulfonyl)ethyl)-3-(trifluoromethyl)-1H-pyrrolo[2,3-b]pyridine-4,6-diamine]
15 | < 100 | < 100 | 101 to 300 | 301 to 1000 | < 100 | 101 to 300 | COCCNc1cc(Nc2ccc(S(=O)(=O)N3CCC(N4CCOCC4)CC3)cc2OC)nc2[nH]cc(C(F)(F)F)c12 [Example 197, N^6-(2-methoxy-4-((4-morpholinopiperidin-1-yl)sulfonyl)phenyl)-N^4-(2-methoxyethyl)-3-(trifluoromethyl)-1H-pyrrolo[2,3-b]pyridine-4,6-diamine]
16 | 301 to 1000 | 301 to 1000 | 301 to 1000 | 301 to 1000 | 301 to 1000 | 301 to 1000 | CCCNc1cc(Nc2ccc(S(=O)(=O)N3CCOCC3)cc2OC)nc2[nH]cc(C(F)(F)F)c12 [Example 199, N^6-(2-methoxy-4-(morpholinosulfonyl)phenyl)-N^4-propyl-3-(trifluoromethyl)-1H-pyrrolo[2,3-b]pyridine-4,6-diamine]
